Test results taken from the supplement of paper PMC10307832.

How the values were obtained:
Assay in all cases: relative viability (nuclei count vs DMSO), 5 days (fraction); higher = more cells survive
Kobe2602 + Trametinib = compound: C1=CC(=CC=C1NC(=S)NNC2=C(C=C(C=C2[N+](=O)[O-])C(F)(F)F)[N+](=O)[O-])F [Kobe2602] + CC(=O)Nc1cccc(-n2c(=O)n(C3CC3)c(=O)c3c(Nc4ccc(I)cc4F)n(C)c(=O)c(C)c32)c1 [Trametinib] (partner 0.02 µM)
In short: (§1)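 A single step with final 0.05% Triton X-100, 1% formaldehyde and 1 ug/ml Hoechst fixed the cells and stained nuclei 5 days after treatment. Lung cancer cell lines in 1536-well plates had been treated by pin tool the day after seeding with one drug alone or a fixed anchor-drug dose plus five library-drug doses (not always all listed) in √10 steps, and nuclei were counted on 4× images. Relative viability is the ratio of nuclei in treated wells to nuclei in vehicle wells, taken as the median of duplicate plates.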

Cabozantinib + AZD7762 = compound: COc1cc2nccc(Oc3ccc(NC(=O)C4(C(=O)Nc5ccc(F)cc5)CC4)cc3)c2cc1OC [Cabozantinib] + NC(=O)Nc1cc(-c2cccc(F)c2)sc1C(=O)N[C@H]1CCCNC1 [AZD7762] (partner 0.2 µM)
In short: as §1

[1] = compound: COc1cc2nccc(Oc3ccc(NC(=O)C4(C(=O)Nc5ccc(F)cc5)CC4)cc3)c2cc1OC [Cabozantinib] + CCNC(=O)c1noc(-c2cc(C(C)C)c(O)cc2O)c1-c1ccc(CN2CCOCC2)cc1 [Luminespib] (partner 0.01 µM)
In short: as §1

Kobe2602 + Pemetrexed = compound: C1=CC(=CC=C1NC(=S)NNC2=C(C=C(C=C2[N+](=O)[O-])C(F)(F)F)[N+](=O)[O-])F [Kobe2602] + Nc1nc2[nH]cc(CCc3ccc(C(=O)N[C@@H](CCC(=O)O)C(=O)O)cc3)c2c(=O)[nH]1 [Pemetrexed] (partner 0.2 µM)
In short: as §1

Cell Line | relative viability (Kobe2602 + Trametinib; first compound 0.2 µM) | relative viability (Kobe2602 + Trametinib; first compound 0.6325 µM) | relative viability (Kobe2602 + Trametinib; first compound 2 µM) | relative viability (Kobe2602 + Trametinib; first compound 6.325 µM) | relative viability (Kobe2602 + Trametinib; first compound 20 µM) | relative viability (Cabozantinib + AZD7762; first compound 0.02 µM) | relative viability (Cabozantinib + AZD7762; first compound 0.06325 µM) | relative viability (Cabozantinib + AZD7762; first compound 0.6325 µM) | relative viability (Cabozantinib + AZD7762; first compound 2 µM) | relative viability ([1]; first compound 0.02 µM) | relative viability ([1]; first compound 0.06325 µM) | relative viability ([1]; first compound 0.6325 µM) | relative viability ([1]; first compound 2 µM) | relative viability (Kobe2602 + Pemetrexed; first compound 0.2 µM) | relative viability (Kobe2602 + Pemetrexed; first compound 0.6325 µM) | relative viability (Kobe2602 + Pemetrexed; first compound 2 µM) | relative viability (Kobe2602 + Pemetrexed; first compound 6.325 µM) | relative viability (Kobe2602 + Pemetrexed; first compound 20 µM) | relative viability (Cabozantinib + AZD7762; first compound 0.2 µM) | relative viability ([1]; first compound 0.2 µM)
PC-3 [JPC-3] | 0.69 | 0.699 | 0.7 | 0.683 | 0.668 | 0.633 | 0.888 | 0.859 | 0.798 | 0.857 | 0.803 | 0.825 | 0.777 | 1.26 | 1.33 | 1.11 | 1.11 | 1.06 |  | 
NCI-H1651 | 0.822 | 0.827 | 0.847 | 0.87 | 0.875 | 0.391 | 0.544 | 0.438 | 0.39 | 0.881 | 0.879 | 0.733 | 0.946 | 0.526 | 0.51 | 0.569 | 0.573 | 0.731 | 0.444 | 0.908
HCC-827 | 0.546 | 0.546 | 0.571 | 0.537 | 0.558 | 0.189 | 0.268 | 0.225 | 0.189 | 0.898 | 1.02 | 0.824 | 0.565 | 0.293 | 0.241 | 0.281 | 0.261 | 0.261 |  | 
HARA | 0.846 | 0.636 | 0.627 | 0.771 | 0.752 | 0.291 | 0.332 | 0.339 | 0.301 | 0.722 | 0.421 | 0.92 | 0.548 | 0.228 | 0.296 | 0.255 | 0.239 | 0.313 |  | 0.615
CAL-12T | 0.331 | 0.337 | 0.37 | 0.412 | 0.318 | 0.714 | 0.682 | 0.651 | 0.567 | 0.832 | 0.574 | 0.581 | 1.37 | 1.2 | 1.14 | 1.24 | 1.1 | 1.14 | 0.641 | 0.37
NCI-H3122 | 0.257 | 0.242 | 0.211 | 0.214 | 0.238 | 1.04 | 1.05 | 0.941 | 1.03 | 0.111 | 0.102 | 0.0876 | 0.101 | 0.189 | 0.191 | 0.198 | 0.187 | 0.208 | 1.03 | 0.0937
RERF-LC-KJ | 0.839 | 0.836 | 0.864 | 0.802 | 0.525 | 0.811 | 1.06 | 0.946 | 1.01 | 1.32 | 1.31 | 1.19 | 1.23 | 0.468 | 0.469 | 0.498 | 0.496 | 0.449 | 0.963 | 1.19
NCI-H441 | 0.509 | 0.496 | 0.472 | 0.433 | 0.54 | 1.64 | 1.43 | 1.44 | 0.826 | 0.326 | 0.404 | 0.324 | 0.375 | 0.285 | 0.217 | 0.244 | 0.279 | 0.288 | 1.1 | 0.306
NCI-H2342 | 0.741 | 0.84 | 0.794 | 0.68 | 0.84 | 0.401 | 0.69 | 0.535 | 0.415 | 0.673 | 0.837 | 0.604 | 0.591 | 0.734 | 0.754 | 0.734 | 0.763 | 0.844 | 0.624 | 0.864
LCLC-97TM1 | 0.184 | 0.186 |  | 0.207 | 0.257 |  | 0.305 | 0.195 | 0.304 | 0.784 | 0.817 | 0.805 | 0.638 | 0.204 | 0.15 |  | 0.14 | 0.161 | 0.285 | 0.875
NCI-H2087 | 0.29 | 0.188 | 0.173 | 0.196 | 0.191 | 1.19 | 1.44 | 1.35 | 1.35 | 0.163 | 0.185 | 0.168 | 0.158 | 0.649 | 0.653 | 0.584 | 0.698 | 0.649 | 1.18 | 0.193
NCI-H647 | 0.383 | 0.474 | 0.505 | 0.425 | 0.494 | 0.44 | 0.77 | 0.594 | 0.4 | 0.155 | 0.138 | 0.251 | 0.368 | 0.178 | 0.22 | 0.174 | 0.172 | 0.184 | 0.427 | 0.264
LCLC-103H | 0.651 | 0.731 | 0.674 | 0.73 | 0.644 | 0.762 | 0.87 | 0.813 | 0.721 | 1.07 | 0.962 | 0.983 | 0.905 | 0.494 | 0.502 | 0.454 | 0.438 | 0.449 | 0.811 | 1.03
HCC-15 | 0.34 | 0.397 | 0.362 | 0.386 | 0.387 | 1.22 | 1.27 | 1.26 | 1.19 | 0.374 | 0.361 | 0.394 | 0.214 | 0.238 | 0.216 | 0.223 | 0.229 | 0.211 | 1.13 | 0.515
H3255 | 0.621 | 0.629 | 0.549 | 0.632 | 0.588 | 0.938 | 1.14 | 0.911 | 0.923 | 0.885 | 1.13 | 0.905 | 0.893 | 0.549 | 0.544 | 0.57 | 0.629 | 0.584 |  | 
NCI-H1915 | 0.291 | 0.312 | 0.292 | 0.312 | 0.346 | 0.769 | 0.721 | 0.804 | 0.678 | 0.915 | 0.978 | 0.871 | 0.776 | 0.489 | 0.498 | 0.458 | 0.503 | 0.45 | 0.725 | 0.779
